{"source": "patent US20100298141A1", "about": "“SUBSTITUTED PYRIDINE N-OXIDE HERBICIDES” (E. I. DU PONT DE NEMOURS AND COMPANY, priority 2007, published 2010)", "key": {"barnyardgrass [1]": {"test_system": "barnyardgrass", "assay": "Test A pre-/postemergence greenhouse test", "type": "in vivo, Echinochloa crus-galli", "conditions": "for Plant response rating, Barnyardgrass: 0 to 100 scale where 0 is no effect and 100 is complete control; for Barnyardgrass plant response rating: 0 to 100 scale", "outline": "(§1)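 Visual injury ratings against untreated controls, taken roughly ten days after treatment in greenhouse. Plants were sprayed postemergence at one- to two-leaf stage (2–10 cm tall); at the same time, seeded loam/sand soil received a directed preemergence spray. Formulation: non-phytotoxic solvent mixture with surfactant.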"}, "crabgrass": {"test_system": "crabgrass", "assay": "Test A pre-/postemergence greenhouse test", "type": "in vivo, Digitaria sanguinalis", "conditions": "for Plant response rating, Crabgrass, Large: 0 to 100 scale where 0 is no effect and 100 is complete control; for Crabgrass, Large plant response rating: 0 to 100 scale", "outline": "as §1"}, "giant foxtail": {"test_system": "giant foxtail", "assay": "Test A pre-/postemergence greenhouse test", "type": "in vivo, Setaria faberi", "conditions": "for Plant response rating, Foxtail, Giant: 0 to 100 scale where 0 is no effect and 100 is complete control; for Foxtail, Giant plant response rating: 0 to 100 scale", "outline": "as §1"}, "morningglory": {"test_system": "morningglory", "assay": "Test A pre-/postemergence greenhouse test", "type": "in vivo, Ipomoea spp.", "conditions": "for Plant response rating, Morningglory: 0 to 100 scale where 0 is no effect and 100 is complete control; for Morningglory plant response rating: 0 to 100 scale", "outline": "as §1"}, "redroot pigweed": {"test_system": "redroot pigweed", "assay": "Test A pre-/postemergence greenhouse test", "type": "in vivo, Amaranthus retroflexus", "conditions": "for Plant response rating, Pigweed: 0 to 100 scale where 0 is no effect and 100 is complete control; for Pigweed plant response rating: 0 to 100 scale", "outline": "as §1"}, "velvetleaf": {"test_system": "velvetleaf", "assay": "Test A pre-/postemergence greenhouse test", "type": "in vivo, Abutilon theophrasti", "conditions": "for Plant response rating, Velvetleaf: 0 to 100 scale where 0 is no effect and 100 is complete control; for Velvetleaf plant response rating: 0 to 100 scale", "outline": "as §1"}, "wheat": {"test_system": "wheat", "assay": "Test A pre-/postemergence greenhouse test", "type": "in vivo, Triticum aestivum", "conditions": "for Plant response rating, Wheat: 0 to 100 scale where 0 is no effect and 100 is complete control; for Wheat plant response rating: 0 to 100 scale", "outline": "as §1"}, "corn": {"test_system": "corn", "assay": "Test A pre-/postemergence greenhouse test", "type": "in vivo, Zea mays", "conditions": "for Plant response rating, Corn: 0 to 100 scale where 0 is no effect and 100 is complete control; for Corn plant response rating: 0 to 100 scale", "outline": "as §1"}, "rice": {"test_system": "rice", "assay": "Test C flooded paddy test", "type": "in vivo, Oryza sativa", "conditions": "Flood", "outline": "(§2)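 Compound was added to standing water 3 cm above soil, flood maintained, and plants held in a greenhouse before visual scoring against controls at 13 to 15 days.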"}, "umbrella sedge": {"test_system": "umbrella sedge", "assay": "Test C flooded paddy test", "type": "in vivo, Cyperus difformis", "conditions": "Flood", "outline": "as §2"}, "duck salad": {"test_system": "duck salad", "assay": "Test C flooded paddy test", "type": "in vivo, Heteranthera limosa", "conditions": "Flood", "outline": "as §2"}, "barnyardgrass [2]": {"test_system": "barnyardgrass", "assay": "Test C flooded paddy test", "type": "in vivo, Echinochloa crus-galli", "conditions": "Flood", "outline": "as §2"}, "[3]": {"conditions": "Postemergence, 500 g ai/ha, 0 is no effect, 100 is complete control"}, "[4]": {"conditions": "Preemergence, 125 g ai/ha, 0 no effect, 100 complete control"}, "[5]": {"conditions": "Preemergence, 500 g ai/ha, 0 no effect, 100 complete control"}, "[6]": {"conditions": "62 g ai/ha, scale 0 to 100 (0 no effect, 100 complete control)"}, "[7]": {"conditions": "250 g ai/ha, scale 0 to 100, 0 no effect, 100 complete control, 13 to 15 days"}, "[8]": {"conditions": "Postemergence, 125 g ai/ha, 0 is no effect, 100 is complete control"}, "[9]": {"conditions": "31 g ai/ha, scale 0 to 100 (0 no effect, 100 complete control)"}, "[10]": {"conditions": "62 g ai/ha, scale 0 to 100, 0 no effect, 100 complete control, 13 to 15 days"}, "[11]": {"conditions": "125 g ai/ha, scale 0 to 100, 0 no effect, 100 complete control, 13 to 15 days"}, "[12]": {"conditions": "250 g ai/ha, scale 0 to 100 (0 no effect, 100 complete control)"}}}
{"smiles": "Cn1nc(C(F)(F)F)c(C[S+]([O-])c2ccc(Cl)c[n+]2[O-])c1OCC(F)(F)C(F)(F)F", "note": "(stereo not drawn) [Compound 89]", "values": [{"measurement": "Plant response rating, Barnyardgrass", "setting": "barnyardgrass [1]; Postemergence, 125 g ai/ha", "value": 70}, {"measurement": "Barnyardgrass plant response rating", "setting": "barnyardgrass [1]; [3]", "value": 90}, {"measurement": "Barnyardgrass plant response rating", "setting": "barnyardgrass [1]; [4]", "value": 40}, {"measurement": "Plant response rating, Barnyardgrass", "setting": "barnyardgrass [1]; Preemergence, 500 g ai/ha", "value": 100}, {"measurement": "Plant response rating, Crabgrass, Large", "setting": "crabgrass; Postemergence, 125 g ai/ha", "value": 50}, {"measurement": "Crabgrass, Large plant response rating", "setting": "crabgrass; [3]", "value": 90}, {"measurement": "Crabgrass, Large plant response rating", "setting": "crabgrass; [4]", "value": 90}, {"measurement": "Plant response rating, Crabgrass, Large", "setting": "crabgrass; Preemergence, 500 g ai/ha", "value": 90}, {"measurement": "Plant response rating, Foxtail, Giant", "setting": "giant foxtail; Postemergence, 125 g ai/ha", "value": 80}, {"measurement": "Foxtail, Giant plant response rating", "setting": "giant foxtail; [3]", "value": 90}, {"measurement": "Foxtail, Giant plant response rating", "setting": "giant foxtail; [4]", "value": 80}, {"measurement": "Plant response rating, Foxtail, Giant", "setting": "giant foxtail; Preemergence, 500 g ai/ha", "value": 100}, {"measurement": "Plant response rating, Morningglory", "setting": "morningglory; Postemergence, 125 g ai/ha", "value": 40}, {"measurement": "Morningglory plant response rating", "setting": "morningglory; [3]", "value": 90}, {"measurement": "Plant response rating, Morningglory", "setting": "morningglory; Preemergence, 500 g ai/ha", "value": 90}, {"measurement": "Plant response rating, Pigweed", "setting": "redroot pigweed; Postemergence, 125 g ai/ha", "value": 50}, {"measurement": "Pigweed plant response rating", "setting": "redroot pigweed; [3]", "value": 100}, {"measurement": "Pigweed plant response rating", "setting": "redroot pigweed; [4]", "value": 80}, {"measurement": "Plant response rating, Pigweed", "setting": "redroot pigweed; Preemergence, 500 g ai/ha", "value": 100}, {"measurement": "Plant response rating, Velvetleaf", "setting": "velvetleaf; Postemergence, 125 g ai/ha", "value": 30}, {"measurement": "Velvetleaf plant response rating", "setting": "velvetleaf; [3]", "value": 80}, {"measurement": "Velvetleaf plant response rating", "setting": "velvetleaf; [4]", "value": 10}, {"measurement": "Velvetleaf plant response rating", "setting": "velvetleaf; [5]", "value": 100}, {"measurement": "Plant response rating, Wheat", "setting": "wheat; Postemergence, 125 g ai/ha", "value": 60}, {"measurement": "Wheat plant response rating", "setting": "wheat; [3]", "value": 70}, {"measurement": "Wheat plant response rating", "setting": "wheat; [4]", "value": 30}, {"measurement": "Wheat plant response rating", "setting": "wheat; [5]", "value": 90}, {"measurement": "Plant response rating, Corn", "setting": "corn; Postemergence, 125 g ai/ha", "value": 50}, {"measurement": "Corn plant response rating", "setting": "corn; [3]", "value": 80}, {"measurement": "Corn plant response rating", "setting": "corn; [4]", "value": 30}, {"measurement": "Plant response rating, Corn", "setting": "corn; Preemergence, 500 g ai/ha", "value": 90}, {"measurement": "Plant response rating, Rice", "setting": "rice; [6]", "value": 0}, {"measurement": "Plant response rating, Rice", "setting": "rice; [7]", "value": 60}, {"measurement": "Plant response rating, Sedge, Umbrella", "setting": "umbrella sedge; [6]", "value": 0}, {"measurement": "Plant response rating, Sedge, Umbrella", "setting": "umbrella sedge; [7]", "value": 100}, {"measurement": "Plant response rating, Ducksalad", "setting": "duck salad; [6]", "value": 40}, {"measurement": "Plant response rating, Ducksalad", "setting": "duck salad; [7]", "value": 100}, {"measurement": "Plant response rating, Barnyardgrass", "setting": "barnyardgrass [2]; [6]", "value": 0}, {"measurement": "Plant response rating, Barnyardgrass", "setting": "barnyardgrass [2]; [7]", "value": 90}]}
{"smiles": "CC(c1c(C(F)(F)F)nn(C)c1OC(F)F)S(=O)(=O)c1ccc(Br)c[n+]1[O-]", "note": "(racemic) [Compound 23]", "values": [{"measurement": "Barnyardgrass plant response rating", "setting": "barnyardgrass [1]; [8]", "value": 0}, {"measurement": "Barnyardgrass plant response rating", "setting": "barnyardgrass [1]; [3]", "value": 0}, {"measurement": "Barnyardgrass plant response rating", "setting": "barnyardgrass [1]; [4]", "value": 40}, {"measurement": "Plant response rating, Barnyardgrass", "setting": "barnyardgrass [1]; Preemergence, 500 g ai/ha", "value": 90}, {"measurement": "Crabgrass, Large plant response rating", "setting": "crabgrass; [8]", "value": 40}, {"measurement": "Crabgrass, Large plant response rating", "setting": "crabgrass; [3]", "value": 50}, {"measurement": "Crabgrass, Large plant response rating", "setting": "crabgrass; [4]", "value": 60}, {"measurement": "Plant response rating, Crabgrass, Large", "setting": "crabgrass; Preemergence, 500 g ai/ha", "value": 90}, {"measurement": "Foxtail, Giant plant response rating", "setting": "giant foxtail; [8]", "value": 0}, {"measurement": "Foxtail, Giant plant response rating", "setting": "giant foxtail; [3]", "value": 40}, {"measurement": "Foxtail, Giant plant response rating", "setting": "giant foxtail; [4]", "value": 30}, {"measurement": "Plant response rating, Foxtail, Giant", "setting": "giant foxtail; Preemergence, 500 g ai/ha", "value": 80}, {"measurement": "Morningglory plant response rating", "setting": "morningglory; [8]", "value": 0}, {"measurement": "Morningglory plant response rating", "setting": "morningglory; [3]", "value": 0}, {"measurement": "Morningglory plant response rating", "setting": "morningglory; [4]", "value": 0}, {"measurement": "Plant response rating, Morningglory", "setting": "morningglory; Preemergence, 500 g ai/ha", "value": 0}, {"measurement": "Pigweed plant response rating", "setting": "redroot pigweed; [8]", "value": 0}, {"measurement": "Pigweed plant response rating", "setting": "redroot pigweed; [3]", "value": 50}, {"measurement": "Pigweed plant response rating", "setting": "redroot pigweed; [4]", "value": 100}, {"measurement": "Plant response rating, Pigweed", "setting": "redroot pigweed; Preemergence, 500 g ai/ha", "value": 100}, {"measurement": "Velvetleaf plant response rating", "setting": "velvetleaf; [8]", "value": 0}, {"measurement": "Velvetleaf plant response rating", "setting": "velvetleaf; [3]", "value": 0}, {"measurement": "Velvetleaf plant response rating", "setting": "velvetleaf; [4]", "value": 0}, {"measurement": "Plant response rating, Velvetleaf", "setting": "velvetleaf; Preemergence, 500 g ai/ha", "value": 0}, {"measurement": "Wheat plant response rating", "setting": "wheat; [8]", "value": 0}, {"measurement": "Wheat plant response rating", "setting": "wheat; [3]", "value": 0}, {"measurement": "Wheat plant response rating", "setting": "wheat; [4]", "value": 0}, {"measurement": "Plant response rating, Wheat", "setting": "wheat; Preemergence, 500 g ai/ha", "value": 0}, {"measurement": "Corn plant response rating", "setting": "corn; [8]", "value": 0}, {"measurement": "Corn plant response rating", "setting": "corn; [3]", "value": 0}, {"measurement": "Corn plant response rating", "setting": "corn; [4]", "value": 0}, {"measurement": "Plant response rating, Corn", "setting": "corn; Preemergence, 500 g ai/ha", "value": 0}, {"measurement": "Plant response rating, Rice", "setting": "rice; [9]", "value": 0}, {"measurement": "Plant response rating, Rice", "setting": "rice; [10]", "value": 70}, {"measurement": "Plant response rating, Rice", "setting": "rice; [11]", "value": 70}, {"measurement": "Plant response rating, Rice", "setting": "rice; [12]", "value": 70}, {"measurement": "Plant response rating, Sedge, Umbrella", "setting": "umbrella sedge; [9]", "value": 0}, {"measurement": "Plant response rating, Sedge, Umbrella", "setting": "umbrella sedge; [10]", "value": 55}, {"measurement": "Plant response rating, Sedge, Umbrella", "setting": "umbrella sedge; [11]", "value": 75}, {"measurement": "Plant response rating, Sedge, Umbrella", "setting": "umbrella sedge; [7]", "value": 75}, {"measurement": "Plant response rating, Ducksalad", "setting": "duck salad; [9]", "value": 0}, {"measurement": "Plant response rating, Ducksalad", "setting": "duck salad; [10]", "value": 60}, {"measurement": "Plant response rating, Ducksalad", "setting": "duck salad; [11]", "value": 70}, {"measurement": "Plant response rating, Ducksalad", "setting": "duck salad; [12]", "value": 80}, {"measurement": "Plant response rating, Barnyardgrass", "setting": "barnyardgrass [2]; [9]", "value": 0}, {"measurement": "Plant response rating, Barnyardgrass", "setting": "barnyardgrass [2]; [10]", "value": 45}, {"measurement": "Plant response rating, Barnyardgrass", "setting": "barnyardgrass [2]; [11]", "value": 60}, {"measurement": "Plant response rating, Barnyardgrass", "setting": "barnyardgrass [2]; [12]", "value": 70}]}
